Experimental findings from ChEMBL document CHEMBL1123168 (J Med Chem, 1986) are described below.

Assay [1] deals with Phosphodiesterase 3 (Homo sapiens, UniProt Q14432+Q13370). Put plainly: Cardiotonic effect by inhibition of cAMP phosphodiesterase (PDE III). The format is protein assay, Canis lupus familiaris.
The subject of assay [2] is Canis familiaris. Put plainly: Cardiotonic activity in increasing contractility in phenobarbital-anesthetized dogs after intravenous administration. Format: functional. The conditions noted are these: Canis lupus familiaris.
Assay [3] concerns Canis familiaris. The experiment in a line: Cardiotonic activity by increasing heart rate (HR) in phenobarbital-anesthetized dogs after intravenous administration. Format: functional, Canis lupus familiaris.
For assay [4], the system named is Canis familiaris. Put plainly: Cardiotonic activity by decreasing mean arterial blood pressure(MAP) in phenobarbital-anesthetized dogs after intravenous administration. Format: functional, Canis lupus familiaris, Artery.

With `CCCc1nc(O)c(C#N)cc1-c1ccncc1`, the IC50 (commonly the concentration that gives 50% inhibition) in assay [1] was 38 µM. Also, the ED50 – broadly, the midpoint of the dose-response relation – in assay [2] was 0.748 mg/kg. The Heart rate in assay [3] is listed as 25 beats min-1. For the same compound, in assay [4], the MAP worked out at 20 mmHg.

For `Cc1nc(O)c(N)cc1-c1ccncc1`, in assay [1], the IC50 came out at 31 µM. In assay [2], this compound displayed a 50% effective dose (ED50) of 0.055 mg/kg. Besides, in assay [3], the Heart rate is listed as 9 beats min-1. The compound further yielded an MAP in assay [4] of 10 mmHg.

The compound `CCc1nc(O)c(C#N)cc1-c1ccncc1` came in with an IC50 in assay [1] of 12 µM. The ED50 in assay [2] stood at 0.12 mg/kg. In assay [3], this compound registered a Heart rate of 19 beats min-1. For the same compound, the MAP in assay [4] was 12 mmHg.

`Nc1cc(-c2ccncc2)c[nH]c1=O` [INAMRINONE] yielded an ED50 in assay [2] of 1.89 mg/kg. The compound also had a Heart rate in assay [3] of 13 beats min-1. In addition, the MAP in assay [4] turned out to be 16 mmHg.

In turn, `Cc1[nH]c(=O)c(C#N)cc1-c1ccncc1` [MILRINONE] displayed an ED50 in assay [2] of 0.037 mg/kg. Also, in assay [3], the Heart rate was found to be 14 beats min-1. For the same compound, the MAP in assay [4] came out at 10 mmHg.
